Test results published in ChEMBL document CHEMBL4725292 (J Med Chem, 2020).

Columns and labels:
[1] = system: THP-1; assay: Antiproliferative activity against human THP-1 cells after 72 hrs by cell titer glo assay; format: functional, cell-based; details: THP-1, 72 h
[2] = system: Blood; assay: Inhibition of LPS-induced MCP1 production in human whole blood preincubated for 30 mins followed by LPS addition and measured after overnight incubation by mesoscale assay; format: functional, tissue-based
[3] = system: MV4-11; assay: Antiproliferative activity against human MV4-11 cells after 72 hrs by cell titer glo assay; format: functional, cell-based; details: MV4-11, 72 h
[4] = system: Blood; assay: Inhibition of LPS-induced IL6 production in human whole blood preincubated for 30 mins followed by LPS addition and measured after overnight incubation by mesoscale assay; format: functional, tissue-based
[5] = system: Blood; assay: Inhibition of LPS-induced TNFalpha production in human whole blood preincubated for 30 mins followed by LPS addition and measured after overnight incubation by mesoscale assay; format: functional, tissue-based
[6] = system: HL-60; assay: Antiproliferative activity against human HL-60 cells after 72 hrs by cell titer glo assay; format: functional, cell-based; details: HL-60, 72 h
[7] = Permeability of the compound in pH 7.4 phosphate buffer measured after 3 hrs by artificial membrane permeability assay based HPLC analysis; format: ADME; details: for Papp at 3 h: PAMPA, pH 7.4, read-out: permeability
[8] = Inhibition of LPS-induced MCP1 production in PBMC (unknown origin); format: functional, tissue-based
[9] = Selectivity index, […] for His6-thr-tagged BRD4 BD1 (1 to 477 residues)/BD2 Y390A mutant (unknown origin) to pIC50 for LPS-induced MCP1 production in PBMC (unknown origin)
[10] = target: Bromodomain-containing protein 4 (Homo sapiens, UniProt O60885, Y390A); assay: Displacement of Alexa Fluor 647 labelled ligand from His6-thr-tagged BRD4 BD1 (1 to 477 residues)/BD2 Y390A mutant (unknown origin) after 30 mins by TR-FRET assay
[11] = Lipophilicity, logD of the compound at pH 7.4 by chromatographic method; format: physicochemical; details: buffer
[12] = target: Bromodomain-containing protein 4 (Homo sapiens, UniProt O60885, Y97A); assay: Displacement of Alexa Fluor 647 labelled ligand from His6-tagged BRD4 BD2 (1 to 477 residues)/BD1 Y97A mutant (unknown origin) after 30 mins by TR-FRET assay
[13] = target: T1, ATPase family AAA domain-containing protein 2 (Homo sapiens, UniProt Q6PL18); assay: Inhibition of ATAD2 (unknown origin) by TR-FRET assay
T1 sequence (Q6PL18 whole entry): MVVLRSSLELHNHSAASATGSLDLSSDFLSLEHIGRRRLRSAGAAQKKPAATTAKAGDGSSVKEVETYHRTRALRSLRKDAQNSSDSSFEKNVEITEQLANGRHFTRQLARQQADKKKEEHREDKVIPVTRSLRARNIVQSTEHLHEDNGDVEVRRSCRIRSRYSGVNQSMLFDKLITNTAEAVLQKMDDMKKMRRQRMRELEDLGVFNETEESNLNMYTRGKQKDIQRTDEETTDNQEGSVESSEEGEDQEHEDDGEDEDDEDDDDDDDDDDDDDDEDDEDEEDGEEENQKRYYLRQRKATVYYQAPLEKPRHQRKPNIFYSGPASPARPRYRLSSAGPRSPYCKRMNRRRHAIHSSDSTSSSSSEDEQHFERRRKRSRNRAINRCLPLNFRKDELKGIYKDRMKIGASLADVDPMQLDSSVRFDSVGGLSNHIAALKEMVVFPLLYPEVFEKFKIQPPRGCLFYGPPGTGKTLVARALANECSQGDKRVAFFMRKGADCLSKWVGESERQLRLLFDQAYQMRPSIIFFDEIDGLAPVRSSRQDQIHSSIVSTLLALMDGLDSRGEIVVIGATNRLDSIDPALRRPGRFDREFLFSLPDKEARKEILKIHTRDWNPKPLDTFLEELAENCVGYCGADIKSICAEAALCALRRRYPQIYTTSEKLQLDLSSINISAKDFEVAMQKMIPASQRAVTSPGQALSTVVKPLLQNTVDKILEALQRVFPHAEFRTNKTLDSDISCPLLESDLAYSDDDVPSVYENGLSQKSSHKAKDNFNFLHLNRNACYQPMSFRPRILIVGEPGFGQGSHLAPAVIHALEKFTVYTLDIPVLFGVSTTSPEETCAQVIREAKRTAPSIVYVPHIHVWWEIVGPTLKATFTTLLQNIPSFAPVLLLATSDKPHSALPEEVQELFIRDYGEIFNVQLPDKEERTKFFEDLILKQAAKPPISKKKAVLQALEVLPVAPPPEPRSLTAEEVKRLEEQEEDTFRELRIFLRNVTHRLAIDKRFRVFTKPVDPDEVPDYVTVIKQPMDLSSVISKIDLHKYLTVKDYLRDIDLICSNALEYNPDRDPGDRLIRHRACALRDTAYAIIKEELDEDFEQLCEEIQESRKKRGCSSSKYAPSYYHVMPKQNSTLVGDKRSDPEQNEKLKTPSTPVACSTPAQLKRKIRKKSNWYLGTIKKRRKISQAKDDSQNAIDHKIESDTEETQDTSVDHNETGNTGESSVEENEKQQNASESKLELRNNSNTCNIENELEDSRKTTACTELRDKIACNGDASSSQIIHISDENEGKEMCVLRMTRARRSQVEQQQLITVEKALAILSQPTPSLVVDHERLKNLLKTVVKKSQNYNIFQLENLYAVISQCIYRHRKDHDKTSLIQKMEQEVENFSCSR

[14] = system: Bromodomain-containing protein 4 (Homo sapiens), O60885 [UNDEFINED MUTATION]; assay: Selectivity index, […] for His6-thr-tagged BRD4 BD1 (1 to 477 residues)/BD2 Y390A mutant (unknown origin) to pIC50 for His6-tagged BRD4 BD2 (1 to 477 residues)/BD1 Y97A mutant (unknown origin)

Row | IC50 [1] [nM] | IC50 [2] [nM] | IC50 [3] [nM] | IC50 [4] [nM] | IC50 [5] [nM] | IC50 [6] [nM] | permeability ([7]; artificial membrane, pH 7.4, 3 h, 3 h) [×10⁻⁶ cm/s] | IC50 [8] [nM] | IC50 [10] [nM] | chromatographic logD [11] | IC50 [12] [nM] | Papp at 3 h [7] [×10⁻⁶ cm/s] | IC50 [13] [nM] | Selectivity Index [14] | SMILES | Selectivity Index [9]
1 | 134 | 300 | 127 | 1030 | 380 | 195 |  |  |  |  |  |  |  |  | COc1cc2c(cc1-c1c(C)noc1C)ncc1[nH]c(=O)n([C@H](C)c3ccccn3)c12 | 
2 |  |  |  |  |  |  | 1.9 | 200 | 20 | 3.12 | 12600 |  |  |  | Cc1cc2c(-c3ccco3)cnc(N[C@@H]3CCNC[C@H]3C(=O)NC3CCCCC3)c2[nH]c1=O | 10
3 |  |  |  |  |  |  |  |  | 794 | 2.03 | > 50100 | < 0.3 | > 39800 | > 60 | Cc1cc2ccnc(N[C@@H]3CCNC[C@H]3C(=O)NC3CCCCC3)c2[nH]c1=O (racemic) | 
4 |  |  |  |  |  |  |  |  | 316 | 3.66 | 15800 | < 1 |  | 50 | Cc1cc2c(-c3ccco3)ccc(N[C@@H]3CCNC[C@H]3C(=O)NC3CCCCC3)c2[nH]c1=O (racemic) | 
